From ChEMBL document CHEMBL5584254, “Identification of N-(((1S,3R,5S)-adamantan-1-yl)methyl)-3-((4-chlorophenyl)sulfonyl)benzenesulfonamide as novel Nav1.8 inhibitor with analgesic profile” (Bioorg Med Chem Lett, 2024)
Each block holds one molecule with its values, some of them ahead of it. Calls of active or inactive are those of the source.

What was measured:
HEK293 = experiment: Binding affinity to Nav1.8 (unknown origin) expressed in HEK293 cells assessed as retention time by cell membrane chromatography analysis; type: cell membranes; conditions: Homo sapiens
Homo sapiens = species on record: Homo sapiens; experiment: Inhibition of Nav1.8 (unknown origin) at 10 uM under resting state by whole-cell patch clamp analysis relative to control
Mus musculus [1] = experiment: Analgesic activity in CFA-induced inflammatory pain mouse model assessed as increase in mechanical pain threshold at 10 mM, ip measured within 5 hrs by von frey test; type: functional, organism-based
Mus musculus [2] = experiment: Analgesic activity in CFA-induced inflammatory pain mouse model assessed as inhibition of mechanical hyperalgesia by measuring delta AUC at 10 mM, ip by von frey test; type: functional, organism-based
Mus musculus [3] = experiment: Analgesic activity in CFA-induced inflammatory pain mouse model assessed as effect on intensity of pain relief by measuring delta AUC at 10 mM, ip by von frey test; type: functional, organism-based
Mus musculus [4] = experiment: Analgesic activity in CFA-induced inflammatory pain mouse model assessed as increase in mechanical pain threshold at 10 mM, ip measured upto 5 hrs by von frey test; type: functional, organism-based
Mus musculus [5] = experiment: Analgesic activity in CFA-induced inflammatory pain mouse model assessed as effect on duration of pain relief by measuring delta AUC at 10 mM, ip by von frey test; type: functional, organism-based
Nav1.8 (SCN10A) = experiment: Inhibition of Nav1.8 (unknown origin) at 10 uM under half […] state by whole-cell patch clamp analysis relative to control; conditions: human

SMILES: COc1cccc(C2C3=C(CC4=C2C(=O)CC(C)(C)C4)CC(C)(C)CC3=O)c1OCC(=O)O
- Retention time (HEK293): 1.2 min

SMILES: Cc1ccc(C)c(Cn2cccc2CNC(=O)NC23CC4CC(CC(C4)C2)C3)c1
- Retention time (HEK293): 0.4 min

- inhibition (Homo sapiens): 6.49%
- inhibition at 10 µM (Nav1.8 (SCN10A)): 11.1%
SMILES: Cc1ccccc1C1CC(=O)C2=C(C1)NC(=O)C(CC(=O)Nc1cccc(Cl)c1C)C2 (stereo not given)
- Retention time (HEK293): 5.76 min
- Activity (Mus musculus [1]): Active
- Activity (Mus musculus [2]): Active
- Activity (Mus musculus [3]): Active
- Activity (Mus musculus [4]): Active
- Activity (Mus musculus [5]): Active

SMILES: O=C(Cc1cccc2ccccc12)NN1C(=O)C2C3C=CC(C3)C2C1=O (stereo not given)
- Retention time (HEK293): 1.9 min

- inhibition (Homo sapiens): 14.3%
- inhibition at 10 µM (Nav1.8 (SCN10A)): 63.8%
SMILES: O=S(=O)(NCC12CC3CC(CC(C3)C1)C2)c1cccc(S(=O)(=O)c2ccc(Cl)cc2)c1
- Retention time (HEK293): 56 min
- Activity (Mus musculus [1]): Active
- Activity (Mus musculus [2]): Active
- Activity (Mus musculus [3]): Active
- Activity (Mus musculus [4]): Active
- Activity (Mus musculus [5]): Active

SMILES: Cc1cc(F)ccc1Oc1cc(C(F)(F)F)ccc1C(=O)Nc1cc[nH]c(=O)c1
- Retention time (HEK293): 8.56 min
- Activity (Mus musculus [1]): inactive
- Activity (Mus musculus [4]): Active

SMILES: CN1c2ccc(F)cc2C(C)(C)C12C=Cc1cc([N+](=O)[O-])ccc1S2 (stereo not given)
- Retention time (HEK293): 0.4 min

SMILES: Cc1ccc(CS(=O)(=O)c2cn(CC(=O)Nc3ccc(F)cc3F)c3ccccc23)cc1
- Retention time (HEK293): 14.7 min
- Activity (Mus musculus [4]): Active

SMILES: CCC1(C)Oc2ccc(NS(=O)(=O)c3ccc4c(c3)Cc3ccccc3-4)cc2O1 (stereo not given)
- Retention time (HEK293): 0.4 min

SMILES: O=C(Cc1ccccc1)N/N=C/c1c2ccccc2cc2ccccc12
- Retention time (HEK293): 0.4 min

SMILES: O=S(=O)(NCC12CC3CC(CC(C3)C1)C2)c1ccc(Cl)c2ccccc12
- Retention time (HEK293): 0.4 min

SMILES: COc1ccc(/C=N/NC(=O)NC23CC4CC(C2)CC(c2ccc(C)cc2)(C4)C3)cc1
- Retention time (HEK293): 0.4 min

SMILES: CC1Oc2ccccc2CC1/C=C1/Oc2cc(OC(=O)c3ccc4c(c3)OCO4)ccc2C1=O (stereo not given)
- Retention time (HEK293): 0.4 min

SMILES: O=[N+]([O-])c1cccc(C2Oc3ccccc3C3CC(c4ccc(F)cc4)=NN32)c1 (stereo not given)
- Retention time (HEK293): 0.4 min

- inhibition (Homo sapiens): 62.1%
SMILES: COc1cc(NC(=O)c2ccc(-c3ccc(Cl)cc3)o2)cc(OC)c1
- Retention time (HEK293): 120 min

SMILES: Cc1cc(OCC(=O)Nc2ccc(C(C)(C)C)cc2)c2c3c(c(=O)oc2c1)CCC3
- Retention time (HEK293): 0.4 min

SMILES: Cc1cc2oc(=O)cc(C)c2c(O)c1C1=NNC(c2ccc3c(c2)OCO3)C1 (stereo not given)
- Retention time (HEK293): 0.4 min
